Results on 18 molecules are retold here after patent US12274264B2, “Piperonylic acid derivative and application thereof” (SHENYANG SINOCHEM AGROCHEMICALS R&D CO., LTD., priority 2019, dated 2025).

Read-outs that look alike come from different tables or passages of the source.

Holding throughout (format): in vivo
Series [1] has as its system Tribolium confusum adults. In words: Determination of Tribolium confusum adults (treated feeding bran, 72 h). As to conditions: for mortality at 600 µg/mL: 600 mg/L, read-out: mortality rates against Tribolium confusum adults; for mortality at 5 µg/mL / mortality at 20 µg/mL: read-out: Mortality (%) against Tribolium Confusum Adults. Here is the method:
(§1) According to the solubility of test compounds, the compounds are dissolved with acetone or dimethyl sulfoxide, and then diluted with 0.1% Tween 80 solution to form a required concentration of 50 ml test liquid. The content of the acetone or the dimethyl sulfoxide in the total solution is not more than 10%.
The test liquid was prepared in the order from low dose to high dose according to the test design. Then, the liquid of different concentrations was added to feeding bran and uniformly stirred, and dried in the shade. Then, the resulting feeding bran was collected in a paper cup. Fifty Tribolium confusum adults with consistent size were put in the paper cup. Three replicates were set for each treatment. Control check was set. The treated test materials were put in an observation room under controlled conditions. After 72 h, the number of dead and surviving adults was investigated.

Series [2] relates to western flower thrips nymphs. Nature of the series: Determination of activity against western flower thrips nymphs (sprayed kidney bean leaves, mortality after 72 hours). The settings on record: for mortality at 600 µg/mL / mortality at 10 µg/mL / mortality at 100 µg/mL: Frankliniella occidentalis; for mortality at 600 µg/mL: 600 mg/L, read-out: mortality rates against western flower thrips nymphs; for mortality at 10 µg/mL / mortality at 100 µg/mL: read-out: Mortality (%) against Western Flower Thrips Nymphs. Here is the method: as §1
Fresh kidney bean leaves cultured in the glasshouse were selected and uniformly sprayed with 1 ml of the test liquid by using a handheld Airbrush. The leaves were dried naturally and placed in a test tube. Fifteen tidy and healthy western flower thrips nymphs were put into the leaves. Three replicates were set for each treatment. The water treatment was set as control check. After the treatment, the treated tube were placed in a chamber of 24° C., 60%-70% relative humidity and day light. After 72 hours, the number of surviving insects was investigated, and the mortality was calculated.

Another series deals with armyworm. In words: Determination of activity against armyworm (corn leaf dip, mortality after 72 hours). As to conditions: foliar, 10 mg/L, third instar, read-out: mortality rates against armyworm. Here is the method:
as §1
The middle leaves of fresh corns were cut into small sections of 3 cm, and dipped into a solution of the required concentration of test compounds for 10 seconds. After dried in shade, the middle leaves were placed in a 9 cm diameter petri dish provided with filter paper. Fourteen regular healthy test insects (third instar) were put into the leaves. Four replicates were set for each treatment. The pure water treatment was set as control check. The treated discs were placed in a chamber of 24° C., 60%-70% relative humidity and day light. After 72 hours, the number of surviving insects was investigated, and the mortality rate was calculated.

The next series has as its system diamondback moth. In words: Determination of activity against diamondback moth (cabbage leaf disc dip, mortality after 72 hours). As to conditions: Plutella xylostella, foliar, 10 mg/L, second instar, read-out: mortality rates against diamondback moth. On the procedure:
as §1
The leaves of cabbage grown in greenhouse were selected, removed the surface waxy layers, punched into circular leaf discs with a diameter of 2 cm by using a puncher, and dipped into a solution of the required concentration of test compounds for 10 seconds. After dried in shade, the circular leaf discs were placed in a 9 cm diameter petri dish provided with filter paper. Ten regular healthy test insects (second instar) were put into the leaf discs. Four replicates were set for each treatment. The pure water treatment was set as control check. The treated discs were placed in a chamber of 24° C., 60%-70% relative humidity and day light. After 72 hours, the number of surviving insects was investigated, and the mortality rate was calculated.

Series [3] concerns Tetranychus cinnabarinus adults. In words: Determination of acaricidal activity (spray on bean plant leaves with adult spider mites, mortality after 72 hours). The settings on record: after 72 hours, read-out: Mortality (%) against Tetranychus Cinnabarinus Adult. On the procedure: as §1
The adult spider mites were put into two true leaves of bean plants. After the number of mites was investigated, the solution of certain concentrations of test compounds was sprayed by using a handheld Airbrush. Three replicates were set for each treatment. Then the leaves were maintained in a standard observation room. After 72 hours, the number of surviving mites was investigated, and the mortality rate was calculated. Compounds I-41, KC3, KC4 and MC were selected for parallel determination of activity against Tetranychus cinnabarinus adults.

As to `O=C(Nc1cccc(C(=O)Nc2c(I)cc(C(F)(C(F)(F)F)C(F)(F)F)cc2OC(F)F)c1F)c1ccc2c(c1)OC(F)(F)O2` [Compound I-1], the mortality at 600 µg/mL in series [1] (after 72 h) and in series [2] (after 72 hours) was more than 90% in each case. In addition, the mortality at 10 µg/mL in the series with armyworm and in the series with diamondback moth was more than 90% each time.
Regarding `CN(C(=O)c1ccc2c(c1)OC(F)(F)O2)c1cccc(C(=O)Nc2c(I)cc(C(F)(C(F)(F)F)C(F)(F)F)cc2OC(F)F)c1F` [Compound I-2], the mortality at 600 µg/mL in series [1] (after 72 h) and in series [2] (after 72 hours) was more than 90% each time. For the same molecule, the mortality at 10 µg/mL with armyworm and in the series on diamondback moth was more than 90% in each case.
Consider `CN(C(=O)c1ccc2c(c1)OC(F)(F)O2)c1cccc(C(=O)Nc2c(Br)cc(C(F)(C(F)(F)F)C(F)(F)F)cc2OC(F)F)c1F` [Compound I-42, N-(2-bromo-6-difluoromethoxy-4-heptafluoroisopropylphenyl)-2-fluoro-3-(N-methyl-2,2-difluoro-1,3-benzodioxole-5-carboxamido) benzamide], for which the mortality (usually the share of the test organisms that died) at 5 µg/mL in series [1] (5 mg/L, after 72 h) amounted to 81%. For the same molecule, the mortality at 20 µg/mL in series [1] (20 mg/L, after 72 h) came to 100%. Also, the mortality at 600 µg/mL in series [1] (after 72 h) and in series [2] (after 72 hours) was more than 90% each time. The mortality at 10 µg/mL is 91% in series [2] (10 mg/L, after 72 hours); more than 90% in the series with armyworm; more than 90% in the series with diamondback moth. The mortality at 100 µg/mL in series [2] (100 mg/L, after 72 hours) stood at 100%.
With `CCN(C(=O)c1ccc2c(c1)OC(F)(F)O2)c1cccc(C(=O)Nc2c(Br)cc(C(F)(C(F)(F)F)C(F)(F)F)cc2OC(F)F)c1F` [Compound I-43, N-(2-bromo-6-difluoromethoxy-4-heptafluoroisopropylphenyl)-2-fluoro-3-(N-ethyl-2,2-difluoro-1,3-benzodioxole-5-carboxamido) benzamide], the mortality at 600 µg/mL in series [1] (after 72 h) and in series [2] (after 72 hours) was more than 90% each time. For the same molecule, the mortality at 10 µg/mL in the series on armyworm and in the series on diamondback moth was more than 90% each time.
Take `CCCCN(C(=O)c1ccc2c(c1)OC(F)(F)O2)c1cccc(C(=O)Nc2c(Br)cc(C(F)(C(F)(F)F)C(F)(F)F)cc2OC(F)F)c1F` [Compound I-46, N-(2-bromo-6-difluoromethoxy-4-heptafluoroisopropylphenyl)-2-fluoro-3-(N-n-butyl-2,2-difluoro-1,3-benzodioxole-5-carboxamido) benzamide]: the mortality at 600 µg/mL in series [1] (after 72 h) and in series [2] (after 72 hours) was more than 90% throughout. The mortality at 10 µg/mL with armyworm and in the series with diamondback moth was more than 90% in each case.
As to `O=C(Nc1c(Br)cc(C(F)(C(F)(F)F)C(F)(F)F)cc1OC(F)F)c1cccc(N(CC2CC2)C(=O)c2ccc3c(c2)OC(F)(F)O3)c1F` [Compound I-50, N-(2-bromo-6-difluoromethoxy-4-heptafluoroisopropylphenyl)-2-fluoro-3-(N-cyclopropylmethyl-2,2-difluoro-1,3-benzodioxole-5-carboxamido) benzamide], the mortality at 600 µg/mL in series [1] (after 72 h) and in series [2] (after 72 hours) was more than 90% in each case. For the same molecule, the mortality at 10 µg/mL with armyworm and in the series with diamondback moth was more than 90% in each case.
In the case of `CC(C)=CCCC(C)CCN(C(=O)c1ccc2c(c1)OC(F)(F)O2)c1cccc(C(=O)Nc2c(Br)cc(C(F)(C(F)(F)F)C(F)(F)F)cc2OC(F)F)c1F` (stereo not shown) [Compound I-57], the mortality at 600 µg/mL in series [1] (after 72 h) and in series [2] (after 72 hours) was more than 90% throughout. In addition, the mortality at 10 µg/mL with armyworm and with diamondback moth was more than 90% throughout.
For `CSCCCN(C(=O)c1ccc2c(c1)OC(F)(F)O2)c1cccc(C(=O)Nc2c(Br)cc(C(F)(C(F)(F)F)C(F)(F)F)cc2OC(F)F)c1F` [Compound I-60, N-(2-bromo-6-difluoromethoxy-4-heptafluoroisopropylphenyl)-2-fluoro-3-(N-(3-methylthiopropyl)-2,2-difluoro-1,3-benzodioxole-5-carboxamido) benzamide], the mortality at 600 µg/mL in series [1] (after 72 h) and in series [2] (after 72 hours) was more than 90% in each case. The mortality at 10 µg/mL in the series with armyworm and in the series with diamondback moth was more than 90% in each case.
As to `CN(C(=O)c1ccc2c(c1)OC(F)(F)O2)c1cccc(C(=O)Nc2c(Br)cc(C(F)(C(F)(F)F)C(F)(F)F)cc2OC(F)(F)F)c1F` [Compound I-62, N-(2-bromo-4-heptafluoroisopropyl-6-trifluoromethoxyphenyl)-2-fluoro-3-(N-methyl-2,2-difluoro-1,3-benzodioxole-5-carboxamido) benzamide], the mortality at 600 µg/mL in series [1] (after 72 h) and in series [2] (after 72 hours) was more than 90% throughout. Besides, the mortality at 10 µg/mL with armyworm and in the series on diamondback moth was more than 90% throughout.
On to `O=C(Nc1cccc(C(=O)Nc2c(Cl)cc(C(F)(C(F)(F)F)C(F)(F)F)cc2OC(F)F)c1F)c1ccc2c(c1)OC(F)(F)O2` [Compound I-81], for which the mortality at 600 µg/mL in series [1] (after 72 h) and in series [2] (after 72 hours) was more than 90% each time. Moreover, the mortality at 10 µg/mL in the series with armyworm and in the series with diamondback moth was more than 90% throughout.
On to `CN(C(=O)c1ccc2c(c1)OC(F)(F)O2)c1cccc(C(=O)Nc2c(Cl)cc(C(F)(C(F)(F)F)C(F)(F)F)cc2OC(F)F)c1F` [Compound I-82], for which the mortality at 600 µg/mL in series [1] (after 72 h) and in series [2] (after 72 hours) was more than 90% in each case. Also, the mortality at 10 µg/mL in the series with armyworm and in the series with diamondback moth was more than 90% in each case.
For `O=C(Nc1cccc(C(=O)Nc2c(OC(F)F)cc(C(F)(C(F)(F)F)C(F)(F)F)cc2C(F)(F)F)c1F)c1ccc2c(c1)OC(F)(F)O2` [Compound I-121], the mortality at 600 µg/mL in series [1] (after 72 h) and in series [2] (after 72 hours) was more than 90% throughout. Moreover, the mortality at 10 µg/mL with armyworm and with diamondback moth was more than 90% each time.
As for `CN(C(=O)c1ccc2c(c1)OC(F)(F)O2)c1cccc(C(=O)Nc2c(OC(F)F)cc(C(F)(C(F)(F)F)C(F)(F)F)cc2C(F)(F)F)c1F` [Compound I-122], the mortality at 600 µg/mL in series [1] (after 72 h) and in series [2] (after 72 hours) was more than 90% in each case. Further, the mortality at 10 µg/mL in the series with armyworm and in the series with diamondback moth was more than 90% throughout.
Regarding `CNC(=O)c1cc(C#N)cc(C)c1NC(=O)c1cc(Br)nn1-c1ncccc1Cl` [Cyantraniliprole, reference compound], in series [1] (72 h), the mortality at 5 µg/mL is 0% and the mortality at 20 µg/mL turned out to be 5%. In addition, in series [2] (72 h), the mortality at 10 µg/mL worked out at 25% and the mortality at 100 µg/mL was determined as 85%.
Take `O=C(Nc1cccc(C(=O)Nc2c(Br)cc(C(F)(C(F)(F)F)C(F)(F)F)cc2Br)c1F)c1ccc2c(c1)OC(F)(F)O2` [KC1, reference compound]: the mortality at 10 µg/mL in series [2] (10 mg/L, after 72 hours) stood at 15%. Besides, the mortality at 100 µg/mL in series [2] (100 mg/L, after 72 hours) was 85%.
With `CN(C(=O)c1ccc2c(c1)OC(F)(F)O2)c1cccc(C(=O)Nc2c(Br)cc(C(F)(C(F)(F)F)C(F)(F)F)cc2Br)c1F` [KC2, reference compound], the mortality at 5 µg/mL in series [1] (5 mg/L, after 72 h) came to 70%. Moreover, the mortality at 20 µg/mL in series [1] (20 mg/L, after 72 h) was found to be 76%. In addition, the mortality at 10 µg/mL in series [2] (10 mg/L, after 72 hours) was 59%. In series [2] (100 mg/L, after 72 hours), the mortality at 100 µg/mL came to 90%.
`CN(C(=O)c1ccccc1)c1cccc(C(=O)Nc2c(Br)cc(C(F)(C(F)(F)F)C(F)(F)F)cc2OC(F)F)c1F` [MC]: the mortality at 10 µg/mL in series [2] (10 mg/L, after 72 hours) came to 72%; in series [3] (10 mg/L), 0%. In addition, the mortality at 100 µg/mL was 76% in series [2] (100 mg/L, after 72 hours) and 0% in series [3] (100 mg/L). In series [3] (600 mg/L), the mortality at 600 µg/mL worked out at 0%.
As to Spinetoram [reference compound], the “Mortality (%) against Western Flower Thrips Nymphs” value in series [2] (10 mg/L, after 72 hours) stood at 90%; in series [2] (100 mg/L, after 72 hours) it was 100%.
